Read-outs that look alike come from different tables or passages of the source.

In this test the test system is angiotensin-converting enzyme (ACE; EC. 3.4.15.1). Type of test: biochemical. The following applies: for ACE inhibitory rate: HHL substrate, pH 8.3, 37 °C, HPLC-DAD 226 nm, mean ± SEM of three repeats. As to the method: The ACE inhibiting capability was evaluated according to the method described by Wang et al. ([14], which employs the hippuryl-histidilleucina tripeptide (Hip-His-Leu or HHL) as the substrate and evaluates the formation of hippuric acid (HA) by liquid chromatography (HPLC-DAD). Briefly, the commercial enzyme ACE and the substrate HHL (Sigma-Aldrich®) were dissolved in borate buffer (NaOH and boric acid) 100 mmol·L^−1, pH 8.3, supplemented with 300 mmol·L^−1 NaCl; their concentrations were 0.2 U/mL and 5 mmol·L^−1, respectively. Meanwhile, HA and captopril (standard ACE inhibitor) were dissolved in distilled water. The enzyme was pre-incubated in the presence or absence of inhibitor (isolated microginins or captopril) for […] at 37 °C, and the reaction was initiated by addition of substrate. After 30 min, the reaction was stopped by adding 250 μL of hydrochloric acid, and the sample was directly injected into the chromatographic system. […] After 5 min, the substrate was added to start the reaction.
The inhibitory rate was calculated, according to Wang et al., by I% = (A − B)/A × 100%; where A is the peak area of HA without adding ACE inhibitors; and B is the peak area of HA with the addition of ACE inhibitors. All data presented are the average of three repeats; the data are presented as means ± SEM.

“MeAhda-L-Val-L-Leu-L-HTyr-L-Tyr [MG 770]”: under “IC50-based comparison with other microginins”, the “ACE inhibition (in words)” value is “efficiently inhibits ACE, with activity comparable to that of other previously described microginins”. For the same molecule, for the setting “microginin 800 µg·mL^−1”, the ACE inhibitory rate is 92.15 ± 2.76%.
In turn, `C[C@H](CS)C(=O)N1CCC[C@H]1C(=O)O` [captopril, reference compound] returned an ACE inhibitory rate (captopril 0.8 µM) of 88.25 ± 1.19%.

Values taken from article PMC6149861, “Identification, In Vitro Testing and Molecular Docking Studies of Microginins’ Mechanism of Angiotensin-Converting Enzyme Inhibition” (Molecules : A Journal of Synthetic Chemistry and Natural …, 2017).
